The results in this text go back to patent publication US20230405003A1, “APPLICATION OF THYMIDINE DERIVATIVE IN PREPARATION OF DRUGS” (ONQUALITY PHARMACEUTICALS CHINA LTD., priority 2020, published 2023).

The structures appear in SMILES notation.

This series deals with HaCaT cells. Nature of the series: Relief of 5-FU proliferative toxicity to HaCaT cells (CCK-8 cell survival). Format: cell-based. The note with it: 5-Fu 20 μM, HaCaT cells. The essentials: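 HaCaT keratinocytes (5000–10000/well) cultured 24 h, then exposed 48 h to 5-FU alone or with thymidine derivative, or thymidine plus uridine derivative mix, versus solvent-matched blanks. Survival by CCK-8; value is % increase in survival over 5-FU alone, t-test.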

The mark [1] stands for this setting: selected compound final concentration 1.6 μM.
Setting [2] is: selected compound final concentration 3.13 μM.
Where [3] appears, read: selected compound final concentration 6.25 μM.
Setting [4] is: selected compound final concentration 12.5 μM.
Setting [5] is: selected compound final concentration 25 μM.
Where [6] appears, read: selected compound final concentration 50 μM.

Consider `Cc1cn([C@H]2C[C@H](O)[C@@H](COC(=O)C(C)c3cccc(Oc4ccccc4)c3)O2)c(=O)[nH]c1=O` (stereo partly drawn) [T27, ((2R,3S, 5R)-3-hydroxyl-5-(5-methyl-2,4-dioxy-3,4-dihydropyrimidin-1(2H)-yl)tetrahydrofuran-2-yl)2-(3-phenoxyphenyl)propionate Methyl], for which the “Cell Survival Rate (increased percentage of cell survival compared with the Group of 5-FU)” value is recorded as 39%-45% under setting [1]; 51%-58% under setting [2]; 54%-61% under setting [3]; 51%-59% under setting [4]; 49%-57% under setting [5]; 46%-53% under setting [6].
For the compound `Cc1ccc(C(=O)c2ccc(CC(=O)OC[C@H]3O[C@@H](n4cc(C)c(=O)[nH]c4=O)C[C@@H]3O)n2C)cc1` [T36], the “Cell Survival Rate (increased percentage of cell survival compared with the Group of 5-FU)” value under setting [2] is 27%-35%; the “Cell Survival Rate (increased percentage of cell survival compared with the Group of 5-FU)” value under setting [3] is reported as 38%-46%; the “Cell Survival Rate (increased percentage of cell survival compared with the Group of 5-FU)” value under setting [4] is 52%-60%; the “Cell Survival Rate (increased percentage of cell survival compared with the Group of 5-FU)” value under setting [5] is 53%-61%; the “Cell Survival Rate (increased percentage of cell survival compared with the Group of 5-FU)” value under setting [6] is listed as 49%-57%.
Take `Cc1ccc(C(=O)c2ccc(CC(=O)O[C@H]3C[C@H](n4cc(C)c(=O)[nH]c4=O)O[C@@H]3CO)n2C)cc1` [T45]: the “Cell Survival Rate (increased percentage of cell survival compared with the Group of 5-FU)” value by setting is: (selected compound final concentration 0.8 μM) 34%-41%; under setting [1], 39%-46%; under setting [2], 63%-70%; under setting [3], 59%-67%; under setting [4], 48%-55%; under setting [5], 44%-51%. The “Cell Survival Rate (increased percentage of cell survival compared with the Group of 5-FU)” value under setting [6] was 39%-46%.
Take `Cc1cn([C@H]2C[C@H](OC(=O)C(C)c3cccc(C(=O)c4ccccc4)c3)[C@@H](CO)O2)c(=O)[nH]c1=O` (stereo partly shown) [T50]: the “Cell Survival Rate (increased percentage of cell survival compared with the Group of 5-FU)” value is recorded as 13%-20% (selected compound final concentration 2 μM); 26%-33% (selected compound final concentration 4 μM); 36%-43% (selected compound final concentration 8 μM); 47%-53% (selected compound final concentration 16 μM); 68%-76% (selected compound final concentration 32 μM); 74%-82% (selected compound final concentration 62.5 μM). Also, the “Cell Survival Rate (increased percentage of cell survival compared with the Group of 5-FU)” value reads like this: (selected compound final concentration 125 μM) 75%-85%; (selected compound final concentration 250 μM) 75%-82%; (selected compound final concentration 500 μM) 65%-73%; (selected compound final concentration 1000 μM) 58%-65%.
